# Reference: patent publication US8828976B2, “Identification and use of compounds that affect the fidelity of eukaryotic translation initiation codon selection” (priority 2010, dated 2014)
# Where a name gives a salt, the structure may show the parent alone. Read-outs that look alike come from different tables or passages of the source.
# What was measured:
# [1] = test system: UUG start codon of Fluc mRNA (fidelity of start codon selection); assay: Dual luciferase assay, primary screen (FlucUUG/RlucAUG), BY4741 with pFuugRaug; assay type: cell-based, Saccharomyces cerevisiae; conditions: for raw FlucUUG value: at concentrations that decrease the other luciferase values
# From the text: In the assay, Renilla luciferase (Rluc) and firefly luciferase (Fluc) genes are expressed from a single plasmid, each under the control of a separate constitutive promoter and terminator, allowing transcription of the two genes as separate mRNAs. The Fluc mRNA has a non-AUG start codon (FIG. 2A). […] UUG was chosen as the near cognate start site in the screen, allowing easy identification of compounds that either increase expression (chemically reproducing a Sui^− phenotype, decreasing fidelity) or decrease expression (enhancing fidelity) of UUG relative to AUG in the dual luciferase assay.
# BY4741 expressing the RaugFaug plasmid was included in the 1st and last column as an additional control. Compounds to be tested were supplied from the NCI DTP library in 96 well format at 1 mM in DMSO. DMSO was included in all control wells. 1.5 μL of compound (or DMSO) was added to each well of the yeast plate, followed by incubation at 30° C. for 4 hours while shaking. […] The same protocol was used when testing the other libraries, with the appropriate solvent controls. The Fuug/Raug ratio of each sample with drug was compared to the average Fuug/Raug ratio of the solvent only controls on the same plate.
# Every row contains DMSO-only controls for each strain. For each compound-treated sample, the ratio of [Fluc(UUG)/Rluc(AUG)]/[Fluc(AUG)/Rluc(AUG)] is calculated using the DMSO-only Fluc(AUG)/Rluc(AUG) control from that row (there is one for each row in a plate). This ratio is the Fluc(UUG)/Fluc(AUG) ratio normalized to Rluc(AUG) activity in each sample. […] Potential changes include pipetting inaccuracies, differences in lysis efficiencies or global effects on gene expression due to differences in cell densities during growth. The internal Rluc control also helps screen out compounds that affect gene expression or cell growth globally rather than having specific effects on translation from non-AUG codons.
# When a hit was identified, rescreening and counter screening assays were done using 300 μM to 10 nM of the compound, i.e., the identified “hit,” to measure concentration dependence.
# [2] = test system: AUG start codon of Fluc mRNA; assay: Dual luciferase counter-screen (FlucAUG/RlucAUG), BY4741 with pFaugRaug; assay type: cell-based, Saccharomyces cerevisiae; conditions: for FlucAUG/RlucAUG ratio in the presence of compound: BY4741, screening conditions
# Experimental: The compounds were then tested in secondary assays.
# The dual luciferase assay was carried out as in Kolitz et al. (RNA, vol. 15, no. 1, pp. 138-152, 2009), with the following modifications to screening conditions: An over-night culture of wild type yeast (BY4741 transformed with pFuugRaug) were diluted to an OD600 of approximately 0.2 in SC-Ura, and 50 μL were aliquoted to each well of a 96 well plate. BY4741 expressing the RaugFaug plasmid was included in the 1st and last column as an additional control. Compounds to be tested were supplied from the NCI DTP library in 96 well format at 1 mM in DMSO. DMSO was included in all control wells. 1.5 μL of compound (or DMSO) was added to each well of the yeast plate, followed by incubation at 30° C. for 4 hours while shaking. To measure luciferase activity, 1 μL of culture was added directly to 50 μL of 1× Passive Lysis Buffer (Promega), incubated 40-60 minutes at room temperature, then luciferase activity measured using a Turner Modulus Microplate Reader (Kolitz et al., RNA, vol. 15, no. 1, pp. 138-152, 2009). The same protocol was used when testing the other libraries, with the appropriate solvent controls. The Fuug/Raug ratio of each sample with drug was compared to the average Fuug/Raug ratio of the solvent only controls on the same plate.
# Changes in the Fluc(UUG)/Rluc(AUG) ratio could be caused by a compound altering the use of UUG as a start codon (the desired target) or a variety of other effects such as changes in transcription of one gene, changes in mRNA or protein half-life, or inhibition or activation of one of the luciferase enzymes. […] Compounds that specifically increase use of near-cognate codons as start sites will not produce an effect in this Fluc(AUG)/Rluc(AUG) assay, whereas compounds that alter other process will not be specific for the Fluc(UUG)/Rluc(AUG) system and will still produce effects with the Fluc(AUG)/Rluc(AUG) reporter. Compounds that are not specific for effects on Fluc(UUG) expression will not be pursued further.
# [3] = test system: UUG start codon of PRE2 uORF; assay: uORF luciferase assay (PRE2 uORF with UUG start codon fused to firefly luciferase); assay type: cell-based, Saccharomyces cerevisiae; conditions: wild type yeast, normalized to DMSO alone
# Experimental: BY4741 was transformed with pNTI33 or pNTI32. Transformants were incubated with compound and luciferase activity measured as described for the dual luciferase assay. The solvent-only firefly luciferase activity was used for normalization.
# To further validate the effects of compounds that pass the primary and counterscreens, an additional reporter assay was performed. The assay uses a 5′-upstream open reading frame (uORF) that begins with a UUG codon and was shown in yeast to be translated, especially under amino acid starvation conditions (Castilho-Valavicius et al., Genetics, vol. 124, pp. 483-495, 1990). This uORF was fused both in-frame and out-of-frame to the firefly luciferase gene and the effect of the compounds on initiation on this physiologically relevant near-cognate start codon assessed.
# This construct was used to assess the effect of the compounds on translation mediated by the non-AUG start codon of the uORFs. The PRE2 uORF has an UUG start codon, with the consensus sequence (−3)AAA(−1) directly upstream of UUG (FIG. 15). In the control reporter, the luciferase coding region is out-of-frame from the start codon of the uORF.
# [4] = test system: Sui- strain sui1-1 (eIF1 D83G); assay: Growth assay of Sui- strain sui1-1 (his4-303) on SC-His / SC plates with compound-soaked paper strips; conditions: for growth of sui1-1 close to the compound source: paper strip with 10 mM NSC92218 or 50 mM NSC218351, FIG. 18 column 1 and 5
# From the text: Compound or solvent soaked paper strips were placed on agar plates. Yeast were spotted onto the plate as 4 rows increasingly distant from the paper strip and grown for 4 days on SC-His and 2 days on SC.
# An additional reporter assay utilizes a yeast strain in which the AUG start codon of the HIS4 gene has been changed to AUU (his4-303) (Huang et al., Genes Dev., vol. 11, pp. 2396-2413, 1997). This strain is a histidine auxotroph and cannot grow on medium lacking histidine. However, Sui^− mutations allow initiation from the AUU start site or, more commonly, a UUG three codons downstream from it, restoring expression of His4p and thus growth on His^− medium (Castilho-Valavicius et al., Genetics, vol. 124, pp. 483-495, 1990; Huang et al., Genes Dev., vol. 11, pp. 2396-2413, 1997; Yoon et al., Mol. Cell. Biol., vol. 12, pp. 248-260, 1992). Observing an alteration of the Sui^− phenotype is a more sensitive assay than rescuing growth of a wild type strain. […] Likewise, if the compound increases the fidelity of initiation, then growth should be compromised.
# Yeast with the his4-303 allele from an over-night culture were washed with water and diluted to an OD600 between 0.1-1. Strips of sterile Whatman paper were soaked with compound or solvent and placed on an agar plate of the appropriate media. The yeast culture was spotted onto the plate at various distances from the paper strips. The plates were incubated at 30° C. Diffusion creates a gradient of compound, which tends to enhance growth only in a certain range because of off-setting toxicity at high concentrations.
# Chemically increasing use of near-cognate codons as start codons mimics the Sui^− phenotype. Sui^− mutations were originally identified in a screen that requires translation initiation at a non-AUG start codon in a mutant of the HIS4 gene (his4-303 allele) for growth on SC-His media (Donahue et al., Mol. Cell. Biol., vol. 8, no. 7, pp. 2955-2963, 1988). Compounds that increase the use of non-AUG start codons to a small degree should further increase growth of Sui^− strains with the his4-303 allele on SC-His media, chemically enhancing the Sui^− phenotype. To test this, a paper strip saturated with compound was placed onto a plate of media (SC or SC-His). Yeast with the his4-303 allele was spotted on the plate at various distances from the compound- or solvent-containing strips.
# [5] = test system: FlucUUG/RlucAUG ratio in hc eIF1 strain; assay: Dual luciferase assay in strain over-expressing eIF1 (H3984, hc eIF1); assay type: cell-based, Saccharomyces cerevisiae; conditions: hc eIF1 vs BY4741; for suppression of the compound's effect on UUG initiation by over-expression of eIF1: 60 μM NSC218351, 3.8 μM NSC92218
# Experimental: H3984 data are an average of 2 independent experiments. Error bars represent average deviation. The concentration of NSC218351 was 60 μM, and NSC92218 was 3.8 μM. Haplo-insufficiency results are averages of data from 2 separate transformants. The concentration of NSC218351 was 33 μM, and NSC92218 was 7 μM. FlucAUG/RlucAUG expression ratio with DMSO alone was used to normalize the Fluc/Rluc ratio for both FlucAUG and FlucUUG for each strain (normalized FlucAUG/RlucAUG with DMSO alone is 1 for each strain).
# Data, from 2 independent experiments, were analyzed.
# yeast cells = assay: Growth / toxicity to wild type yeast
# [6] = test system: near-cognate start codons; assay: Dual luciferase assay with Fluc reporters with different near-cognate start codons; assay type: cell-based, Saccharomyces cerevisiae; conditions: Fluc reporter with AUU start codon
# Experimental: AAG and AGG are not used detectably as Fluc initiation codons in yeast (Kolitz et al., RNA, vol. 15, no. 1, pp. 138-152, 2009) and were thus not tested. […] Efficiency of use of near cognate codons as initiation sites was measured with the dual luciferase assay in several Sui^− mutant strains. Translation from each alternative start codon in the Sui^− strain was normalized to translation from that codon in a wild type strain. Sui^− mutations increase the use of near cognates up to 18-fold (GUG in eIF1 D83G strain). However, in each mutant strain, translation from AUU is increased the least. Although it is not understood why AUU behaves anomalously, it is interesting that NSC218351 mimics this aspect of the behavior of the Sui^− mutations in initiation factors.
# Sui- mutant eIF1 D83G = assay: Growth of Sui- mutant eIF1 D83G in His- culture (doubling time); assay type: cell-based, Saccharomyces cerevisiae; conditions: His- culture with compound; decreased from 8 hrs
# From the text: Doubling times were quantified for two experiments by plotting Log2(OD600) vs. time. The slope of the line between −2.5<Log2(OD600)<2 equals 1/doubling time.
# (§1) While small, the effects are reproducible. No effects on growth of Sui^− strains with mutations in other initiation factors (eIF1A, eIF2, and eIF5) have been detected.
# [7] = test system: Sui- strains with mutations in eIF1A, eIF2, and eIF5; assay: Growth of Sui- strains with mutations in other initiation factors; assay type: cell-based, Saccharomyces cerevisiae
# From the text: as §1
# [8] = analogs of NSC92218, 8 μM, ratio normalized to DMSO control
# [9] = 50 mM on the paper strip, SC-His
compound,measurement,setting,value
"COc1cc(N)c2ncccc2c1Cl [Cpd 19, 5-chloro-6-methoxyquinolin-8-amine]",UUG/AUG (primary screen effect),[1]; [8],0.94
same,AUG/AUG (counter screen effect),[2]; [8],0.99
"Nc1cc(I)c2cccnc2c1O [NSC92218, 7-amino-5-iodo-8-quinolinol hydrochloride]",increase of the FlucUUG/RlucAUG ratio,[1],1.8 fold
same,minimal concentration required to achieve the 1.8-fold increase of the UUG/AUG ratio,[1],15 µM
same,raw FlucUUG value,[1],"did not change, or increases slightly"
same,FlucAUG/RlucAUG ratio in the presence of compound,[2],did not change
same,increase of expression of the in-frame PRE2 uORF-Fluc reporter,[3],~2 fold
same,growth of sui1-1 in column 1 on SC-His relative to the inhibitory effect on SC,[4]; 2.5 mM on the paper strip,growth enhancement occurred
same,growth of sui1-1 on SC-His in columns 2 and 3,[4]; 10 mM on the paper strip,enhanced growth
same,growth of sui1-1 close to the compound source,[4],prevented growth
same,reduction of the compound's effect in the eIF1 over-expressing strain relative to wild type cells,[5]; 3.8 μM,~50%
same,suppression of the compound's effect on UUG initiation by over-expression of eIF1,[5],partially
same,concentration that does not affect growth of wild type yeast while the FlucUUG/RlucAUG ratio increases,yeast cells,2 µM
"O=C(O)c1nccc2ccccc12 [NSC218351, isoquinoline-1-carboxylic acid]","minimal concentration for the effect, NSC218351 relative to NSC92218","[1]; 60 μM vs 15 μM, higher for NSC218351",4 fold
same,minimal concentration required to achieve the 1.8-fold increase of the UUG/AUG ratio,[1]; BY4741,60 µM
same,increase of the FlucUUG/RlucAUG ratio,"[1]; BY4741, 4 hours with compound, reached at 60 μM NSC218351 / 15 μM NSC92218",1.8 fold
same,raw FlucUUG value,[1],increased slightly
same,raw RlucAUG value,"[1]; pFuugRaug plasmid, increasing concentration",decreased
same,FlucAUG/RlucAUG ratio in the presence of compound,[2],does not change
same,initiation at AUU codons,[6],did not increase
same,increase of expression of the in-frame PRE2 uORF-Fluc reporter,[3],approximately 1.5 fold
same,growth of sui1-1 on SC-His in the column closest to the compound source,"[4]; 12.5 mM on the paper strip, column 1",enhanced
same,growth of sui1-1 on selective media close to the drug source,[4]; [9],inhibited
same,growth of sui1-1 on selective media farther from the source relative to DMSO,[4]; [9],enhanced
same,growth of the eIF1 Sui- strains on His- plates,[4]; His- plates,enhances the growth
same,growth of sui1-1 close to the compound source,[4],slowed growth
same,doubling time of eIF1 D83G,Sui- mutant eIF1 D83G,7.35 h
same,"growth of Sui- strains with mutations in other initiation factors (eIF1A, eIF2, and eIF5)",[7],No effects
same,suppression of the compound's effect on UUG initiation by over-expression of eIF1,[5],completely suppressed
same,toxicity to yeast cells,yeast cells,not toxic
same,concentration that does not affect growth of wild type yeast while the FlucUUG/RlucAUG ratio increases,yeast cells,50 µM
same,concentration at which growth was reduced,yeast cells; yeast,300 µM
same,working concentrations at which toxicity is not a concern,yeast cells; yeast,10 to 100 µM
"C[C@@H]1C[C@@H]([C@H](O)CC2CC(=O)NC(=O)C2)C(=O)[C@@H](C)C1 [cycloheximide, reference compound]",effect on FlucUUG/RlucAUG ratio,[1]; BY4741 grown under screening conditions,altered
same,raw luciferase values relative to control values,"[1]; cells grown under screening conditions, four hours",~25%
same,FlucAUG/RlucAUG ratio in the presence of compound,[2],also altered
